Experiments:
AuroraB = biological target: T1, AuroraB (Homo sapiens, UniProt Q96GD4); assay: AuroraB Homogeneous Time Resolved Fluorescent (HTRF) kinase assay; assay type: biochemical; conditions: average; read-out: AurB_IC50_IP (uM Avg)
T1 construct: 20 μL of AuroraB FL H is for a final volume of 41 μL; His
Outline: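 Full-length His-tagged kinase phosphorylates biotinylated Histone H3 (0.1 μM final) with ATP in pH 7.5 HEPES containing MgCl, MnCl, DTT and BSA for about 90 min. EDTA-containing detection mix with SA-APC and Eu-anti-phosphoHistone H3 then equilibrated about 60 min; HTRF read with 320 nm excitation, emissions 615/655 nm.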

AuroraA-TPX2 = biological target: T2, AuroraA-TPX2 (Homo sapiens, UniProt O14965); assay: AuroraA-TPX2 Homogeneous Time Resolved Fluorescent (HTRF) kinase assay; assay type: biochemical; conditions: average; read-out: AurA_IC50_IP (uM Avg)
T2 construct: 20 μL of AuroraA-TPX2 KD GST for a final volume of about 41 μL; GST
T2 sequence (O14965 133-383 limits assumed): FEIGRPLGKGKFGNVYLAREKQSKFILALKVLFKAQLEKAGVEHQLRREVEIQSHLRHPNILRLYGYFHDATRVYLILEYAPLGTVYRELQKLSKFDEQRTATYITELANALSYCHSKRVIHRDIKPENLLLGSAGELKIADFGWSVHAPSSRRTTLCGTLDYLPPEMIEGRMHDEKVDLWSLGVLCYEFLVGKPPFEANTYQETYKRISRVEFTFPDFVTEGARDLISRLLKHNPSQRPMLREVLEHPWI
T2 sequence (Q9ULW0 1-43 partner limits assumed): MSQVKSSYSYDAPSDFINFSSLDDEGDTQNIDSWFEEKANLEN
Outline: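 HTRF read-out (Eu 615 nm to APC 655 nm) of phosphorylated biotin-PLK, detected with 0.02 nM europium anti-phosphoPLK antibody and 0.0005 mg/mL SA-APC after overnight equilibration.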

T1 sequence (Q96GD4 whole entry): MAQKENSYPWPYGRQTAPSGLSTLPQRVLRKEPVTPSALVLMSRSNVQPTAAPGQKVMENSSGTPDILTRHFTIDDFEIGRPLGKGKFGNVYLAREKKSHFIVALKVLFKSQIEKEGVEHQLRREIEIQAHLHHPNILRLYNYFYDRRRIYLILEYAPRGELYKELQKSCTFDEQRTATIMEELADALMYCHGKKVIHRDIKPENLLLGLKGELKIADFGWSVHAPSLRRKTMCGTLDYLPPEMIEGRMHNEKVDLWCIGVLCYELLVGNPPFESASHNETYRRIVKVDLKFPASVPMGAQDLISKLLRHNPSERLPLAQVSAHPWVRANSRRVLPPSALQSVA

SMILES: COc1cnc2c(Sc3ccc(Nc4nnc(-c5ccc(C)c(N)c5)c5ccccc45)cc3)ccnc2c1 [compound 477]
- IC50 (AuroraB): 0.026 µM
- IC50 (AuroraA-TPX2): 0.009 µM

SMILES: COC1CCN(c2nnc(Nc3ccc(Oc4ccnc5ccoc45)cc3)c3ccccc23)CC1 [compound 478]
- IC50 (AuroraB): 0.074 µM
- IC50 (AuroraA-TPX2): 2.03 µM

SMILES: Cc1ccc(-c2nnc(Nc3ccc(Sc4ccnc5ccoc45)cc3)c3ccccc23)cc1N [compound 479]
- IC50 (AuroraB): > 125 µM
- IC50 (AuroraA-TPX2): > 125 µM

SMILES: Cc1ccc(-c2nnc(Nc3ccc(Oc4ccnc5ccoc45)cc3)c3ccccc23)cc1N [compound 480]
- IC50 (AuroraB): 0.013 µM
- IC50 (AuroraA-TPX2): 0.162 µM

SMILES: Cc1ccc(-c2nnc(Nc3ccc(Sc4ccnc5ccoc45)cc3)c3ccccc23)cn1 [compound 481]
- IC50 (AuroraB): 0.002 µM
- IC50 (AuroraA-TPX2): 0.341 µM

SMILES: Cc1ccc(-c2nnc(Nc3ccc(Sc4ccnc5ccoc45)cc3)c3ccccc23)nc1 [compound 482]
- IC50 (AuroraB): 0.004 µM
- IC50 (AuroraA-TPX2): 0.415 µM

SMILES: Clc1ccc(-c2nnc(Nc3ccc(Oc4ccnc5ccoc45)cc3)c3ccccc23)cc1 [compound 483]
- IC50 (AuroraB): 0.013 µM
- IC50 (AuroraA-TPX2): 0.583 µM

SMILES: C[Si](C)(C)c1cc2nccc(Sc3ccc(Nc4nnc(Cl)c5ccccc45)cc3)c2o1 [compound 484]
- IC50 (AuroraB): 0.107 µM
- IC50 (AuroraA-TPX2): > 125 µM

SMILES: COc1ccc(-c2nnc(Nc3ccc(Sc4ccnc5ccoc45)cc3)c3ccccc23)cn1 [compound 485]
- IC50 (AuroraB): 0.005 µM
- IC50 (AuroraA-TPX2): 0.479 µM

SMILES: Clc1ccc(-c2nnc(Nc3ccc(Sc4ccnc5cc(C6CC6)oc45)cc3)c3ccccc23)cc1 [compound 486]
- IC50 (AuroraB): 0.018 µM
- IC50 (AuroraA-TPX2): 0.141 µM

SMILES: Cc1cccc(-c2nnc(Nc3ccc(Sc4ccnc5ccoc45)cc3)c3ccccc23)n1 [compound 488]
- IC50 (AuroraB): 0.015 µM
- IC50 (AuroraA-TPX2): 1.29 µM

SMILES: N#Cc1cc2nccc(Sc3ccc(Nc4nnc(-c5ccc(Cl)cc5)c5ccccc45)cc3)c2o1 [compound 489]
- IC50 (AuroraB): 0.019 µM
- IC50 (AuroraA-TPX2): 0.09 µM

SMILES: Cc1ccc(-c2nnc(Nc3ccc(Sc4ccnc5cc(C#N)oc45)cc3)c3ccccc23)cc1N [compound 490]
- IC50 (AuroraB): 0.013 µM
- IC50 (AuroraA-TPX2): 0.09 µM

SMILES: Cc1cc2nccc(Sc3ccc(Nc4nnc(-c5ccc(Cl)cc5)c5ccccc45)cc3)c2o1 [compound 491]
- IC50 (AuroraB): 0.039 µM
- IC50 (AuroraA-TPX2): 0.15 µM

SMILES: Cc1cc2nccc(Sc3ccc(Nc4nnc(-c5ccc(C)c(N)c5)c5ccccc45)cc3)c2o1 [compound 492]
- IC50 (AuroraB): 0.046 µM
- IC50 (AuroraA-TPX2): 0.142 µM

SMILES: Clc1ccc(-c2nnc(Nc3ccc(Sc4ccnc5cccnc45)cc3)c3ccccc23)nc1 [compound 493]
- IC50 (AuroraB): 0.002 µM
- IC50 (AuroraA-TPX2): 0.02 µM

SMILES: COc1cc2nccc(Sc3ccc(Nc4nnc(-c5cc(C)cs5)c5ccccc45)cc3)c2cn1 [compound 494]
- IC50 (AuroraB): 0.017 µM
- IC50 (AuroraA-TPX2): 0.026 µM

SMILES: COc1cnc2c(Sc3ccc(Nc4nnc(-c5ccccc5F)c5ccccc45)cc3)ccnc2c1 [compound 495]
- IC50 (AuroraB): 0.026 µM
- IC50 (AuroraA-TPX2): 0.15 µM

SMILES: FC(F)(F)Oc1ccc2c(Oc3ccc(Nc4nnc(-c5ccccc5)c5ccccc45)cc3)ccnc2c1 [compound 496]
- IC50 (AuroraB): 0.374 µM
- IC50 (AuroraA-TPX2): 1.04 µM

SMILES: FC(F)(F)Oc1ccc2c(Sc3ccc(Nc4nnc(-c5ccccc5)c5ccccc45)cc3)ccnc2c1 [compound 497]
- IC50 (AuroraB): 0.333 µM
- IC50 (AuroraA-TPX2): > 25 µM

SMILES: FC(F)(F)Oc1ccc2c(Oc3ccc(Nc4nnc(-c5ccc(Cl)cc5)c5ccccc45)cc3)ccnc2c1 [compound 498]
- IC50 (AuroraB): 0.165 µM
- IC50 (AuroraA-TPX2): 0.183 µM

SMILES: Cc1csc(-c2nnc(Nc3ccc(Sc4ccnc5cc(OC(F)(F)F)ccc45)cc3)c3ccccc23)c1 [compound 499]
- IC50 (AuroraB): 0.363 µM
- IC50 (AuroraA-TPX2): 0.277 µM

SMILES: CN(c1ccc(Oc2ccnc3ccc(=O)[nH]c23)cc1)c1nnc(-c2ccc(Cl)cc2)c2ccccc12 [compound 500]
- IC50 (AuroraB): 4.17 µM
- IC50 (AuroraA-TPX2): > 25 µM

SMILES: COc1cnc2c(Sc3ccc(Nc4nnc(-c5ccc6occc6c5)c5ccccc45)cc3)ccnc2c1 [compound 501]
- IC50 (AuroraB): 0.058 µM
- IC50 (AuroraA-TPX2): 0.029 µM

SMILES: COc1cnc2c(Sc3ccc(Nc4nnc(-c5ccc6cn(C)nc6c5)c5ccccc45)cc3)ccnc2c1 [compound 502]
- IC50 (AuroraB): 0.009 µM
- IC50 (AuroraA-TPX2): 0.027 µM

SMILES: COc1cnc2c(Sc3ccc(Nc4nnc(N5CCN(C)CC5)c5ccccc45)cc3)ccnc2c1 [compound 503]
- IC50 (AuroraB): 0.007 µM
- IC50 (AuroraA-TPX2): 0.02 µM

SMILES: COc1cnc2c(Sc3ccc(Nc4nnc(-c5ccc6nonc6c5)c5ccccc45)cc3)ccnc2c1 [compound 504]
- IC50 (AuroraB): 0.032 µM
- IC50 (AuroraA-TPX2): 0.017 µM

SMILES: CCOc1nc(-c2nnc(Nc3ccc(Sc4ccnc5cc(OC)cnc45)cc3)c3ccccc23)cs1 [compound 505]
- IC50 (AuroraB): 0.014 µM
- IC50 (AuroraA-TPX2): 0.016 µM

SMILES: COc1cnc2c(Sc3ccc(Nc4nnc(-c5cscn5)c5ccccc45)cc3)ccnc2c1 [compound 506]
- IC50 (AuroraB): 0.089 µM
- IC50 (AuroraA-TPX2): 0.748 µM

SMILES: COc1cnc2c(Sc3ccc(Nc4nnc(N5CCN(CC(F)F)CC5)c5ccccc45)cc3)ccnc2c1 [compound 507]
- IC50 (AuroraB): 0.042 µM
- IC50 (AuroraA-TPX2): 0.152 µM

SMILES: COc1cnc2c(Sc3ccc(Nc4nnc(NCCCSC)c5ccccc45)cc3)ccnc2c1 [compound 508]
- IC50 (AuroraB): 0.009 µM
- IC50 (AuroraA-TPX2): 0.082 µM

SMILES: COc1ccc(-c2nnc(Nc3ccc(Sc4ccnc5cccnc45)cc3)c3ccccc23)cn1 [compound 509]
- IC50 (AuroraB): 0.013 µM
- IC50 (AuroraA-TPX2): 0.317 µM

SMILES: Cc1csc(-c2nnc(Nc3ccc(Oc4ccnc5cccnc45)cc3)c3cc(F)c(F)cc23)c1 [compound 510]
- IC50 (AuroraB): 0.05 µM
- IC50 (AuroraA-TPX2): 0.32 µM

SMILES: COc1cnc2c(Sc3ccc(Nc4nnc(OC(C)C)c5ccccc45)cc3)ccnc2c1 [compound 511]
- IC50 (AuroraB): 0.069 µM
- IC50 (AuroraA-TPX2): 0.585 µM

SMILES: CCOc1nnc(Nc2ccc(Sc3ccnc4cc(OC)cnc34)cc2)c2ccccc12 [compound 512]
- IC50 (AuroraB): 0.12 µM
- IC50 (AuroraA-TPX2): 0.501 µM

SMILES: COc1cnc2c(Sc3ccc(Nc4nnc(OCC(F)(F)F)c5ccccc45)cc3)ccnc2c1 [compound 513]
- IC50 (AuroraB): 0.03 µM
- IC50 (AuroraA-TPX2): 0.231 µM

SMILES: COc1cnc2c(Sc3ccc(Nc4nnc(SC)c5ccccc45)cc3)ccnc2c1 [compound 514]
- IC50 (AuroraB): 0.01 µM
- IC50 (AuroraA-TPX2): 0.189 µM

SMILES: COCCOc1nnc(Nc2ccc(Sc3ccnc4cc(OC)cnc34)cc2)c2ccccc12 [compound 515]
- IC50 (AuroraB): 0.012 µM
- IC50 (AuroraA-TPX2): 0.072 µM

SMILES: COc1cnc2c(Sc3ccc(Nc4nnc(-c5cccc(Cl)c5)c5ccccc45)cc3)ccnc2c1 [compound 516]
- IC50 (AuroraB): 0.068 µM
- IC50 (AuroraA-TPX2): 0.088 µM

SMILES: c1ccc2c(Sc3ccc(Nc4nnc(-c5ccc6c(c5)OCO6)c5ccccc45)cc3)ccnc2c1 [compound 517]
- IC50 (AuroraB): 0.017 µM
- IC50 (AuroraA-TPX2): 0.15 µM

SMILES: Clc1cccc(-c2nnc(Nc3ccc(Sc4ccnc5ccsc45)cc3)c3ccccc23)c1 [compound 518]
- IC50 (AuroraB): 0.01 µM
- IC50 (AuroraA-TPX2): 0.218 µM

SMILES: COc1cnc2c(Sc3ccc(Nc4nnc(-c5ccccc5)c5ccccc45)cc3F)ccnc2c1 [compound 519]
- IC50 (AuroraB): 0.053 µM
- IC50 (AuroraA-TPX2): 0.083 µM

SMILES: COc1cnc2c(Sc3ccc(Nc4nnc(N5CCCC5)c5ccccc45)cc3)ccnc2c1 [compound 521]
- IC50 (AuroraB): 0.025 µM
- IC50 (AuroraA-TPX2): 0.112 µM

SMILES: COc1cnc2c(Sc3ccc(Nc4nnc(-c5ccc6c(c5)OCO6)c5ccccc45)cc3F)ccnc2c1 [compound 522]
- IC50 (AuroraB): 0.022 µM
- IC50 (AuroraA-TPX2): 0.009 µM

SMILES: COc1cnc2c(Sc3ccc(Nc4nnc(N5CCC(C(F)(F)F)CC5)c5ccccc45)cc3)ccnc2c1 [compound 523]
- IC50 (AuroraB): 0.144 µM
- IC50 (AuroraA-TPX2): 0.036 µM

SMILES: CCCN(C)c1nnc(Nc2ccc(Sc3ccnc4cc(OC)cnc34)cc2)c2ccccc12 [compound 524]
- IC50 (AuroraB): 0.099 µM
- IC50 (AuroraA-TPX2): 0.093 µM

SMILES: COc1cnc2c(Oc3ccc(Nc4nnc(-c5ccc(C)c(OC)c5)c5ccccc45)cc3)ccnc2c1 [compound 525]
- IC50 (AuroraB): 0.028 µM
- IC50 (AuroraA-TPX2): 0.013 µM
